Consider 3 molecules from ChEMBL document CHEMBL1130663, “N-substituted octahydro-4a-(3-hydroxyphenyl)-10a-methyl-benzo[g]isoquinolines are opioid receptor pure antagonists” (Bioorg Med Chem Lett, 1998).

In general, pKi refers to the negative decadic logarithm of the Ki, by convention in mol/L. The low end stands for a high Ki, the high end for a low Ki.

Molecules are shown by their SMILES. pKi: −log10 of the molar value.

Experiment [1] addresses T1, Kappa-type opioid receptor (Cavia porcellus, UniProt P41144). Briefly: Binding affinity was determined as ability to displace [3H]-U-69, radioligand from Opioid receptor kappa 1.
Experiment [2] addresses Mu-type opioid receptor (Rattus norvegicus, UniProt P33535). Briefly: Binding affinity was determined as ability to displace [3H]DAMGO radioligand from Mu opioid receptor.
For experiment [3], the target named is T2, Mu-type opioid receptor (Cavia porcellus, UniProt P97266). As to the kind of experiment: Compound was tested for the inhibition of [35S]GTP-gamma-S, binding in Guinea pig Caudate stimulated by the opioid receptor agonist Mu-DAMGO. The class given is functional. For orientation: Binding of GTPγS marks nucleotide exchange on a G protein.
T2 sequence (P97266 whole entry): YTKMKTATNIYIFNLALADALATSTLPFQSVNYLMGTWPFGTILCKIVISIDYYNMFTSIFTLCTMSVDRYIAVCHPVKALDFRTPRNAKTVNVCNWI
Experiment [4] concerns the target Delta-type opioid receptor (Rattus norvegicus, UniProt P33533). As to the kind of experiment: Binding affinity was determined as ability to displace [3H]DADLE radioligand from Opioid receptor delta 1.
Experiment [5] has as its target T1, Kappa-type opioid receptor. Briefly: Compound was tested for the inhibition of [35S]GTP-gamma-S, binding Opioid receptor kappa 1. The class given is functional.
The target in experiment [6] is T2, Mu-type opioid receptor. Briefly: Binding affinity was determined against Mu opioid receptor using [3H]-Naltrexone as radioligand.
Experiment [7] has as its target T1, Kappa-type opioid receptor. Briefly: Compound was tested for the inhibition of [35S]GTP-gamma-S, binding to Opioid receptor kappa 1. The class given is functional.

T1 sequence (P41144 whole entry): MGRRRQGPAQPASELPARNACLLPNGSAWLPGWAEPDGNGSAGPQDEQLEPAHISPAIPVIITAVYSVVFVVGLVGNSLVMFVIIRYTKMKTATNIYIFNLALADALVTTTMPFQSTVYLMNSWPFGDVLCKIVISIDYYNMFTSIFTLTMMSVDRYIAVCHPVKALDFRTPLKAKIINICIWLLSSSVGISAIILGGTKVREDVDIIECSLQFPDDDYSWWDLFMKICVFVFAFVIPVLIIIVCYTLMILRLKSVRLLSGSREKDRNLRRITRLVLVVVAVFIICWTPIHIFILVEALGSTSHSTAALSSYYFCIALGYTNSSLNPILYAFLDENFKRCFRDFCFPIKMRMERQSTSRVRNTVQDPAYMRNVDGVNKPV
Sequence of Mu-type opioid receptor (Rattus norvegicus, UniProt P33535) (P33535 whole entry): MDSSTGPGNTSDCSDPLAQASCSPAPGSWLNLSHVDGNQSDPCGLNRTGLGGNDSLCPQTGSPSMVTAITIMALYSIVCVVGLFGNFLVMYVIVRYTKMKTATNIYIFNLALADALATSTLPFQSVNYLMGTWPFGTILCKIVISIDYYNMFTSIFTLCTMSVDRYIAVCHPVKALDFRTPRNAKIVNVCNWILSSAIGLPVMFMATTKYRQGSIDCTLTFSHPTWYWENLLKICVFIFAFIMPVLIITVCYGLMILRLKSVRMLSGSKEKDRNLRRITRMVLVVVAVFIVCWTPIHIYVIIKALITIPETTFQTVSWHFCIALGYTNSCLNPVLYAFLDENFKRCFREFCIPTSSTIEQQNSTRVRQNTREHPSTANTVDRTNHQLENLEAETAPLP
Sequence of Delta-type opioid receptor (P33533 whole entry): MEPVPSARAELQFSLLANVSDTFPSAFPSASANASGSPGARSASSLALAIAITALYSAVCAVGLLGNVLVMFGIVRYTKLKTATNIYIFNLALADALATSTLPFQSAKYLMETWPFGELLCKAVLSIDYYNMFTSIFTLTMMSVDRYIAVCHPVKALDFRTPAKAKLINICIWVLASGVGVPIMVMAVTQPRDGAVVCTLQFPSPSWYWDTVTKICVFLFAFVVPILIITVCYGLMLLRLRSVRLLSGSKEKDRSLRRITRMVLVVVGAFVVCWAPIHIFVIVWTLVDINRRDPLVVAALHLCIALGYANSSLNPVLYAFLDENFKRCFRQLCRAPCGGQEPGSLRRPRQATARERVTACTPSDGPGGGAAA

Turning to `C[C@]12Cc3ccccc3C[C@@]1(c1cccc(O)c1)CCN(CCc1ccccc1)C2`, the pKi in experiment [1] is 8.01; in experiment [2], 7.95; in experiment [3], 8.00; in experiment [4], 5.90; in experiment [5], 8.18.

`C[C@H]1CN(C)CC[C@@]1(C)c1cccc(O)c1` had a pKi in experiment [6] of 7.10.

As to `CN1CC[C@]2(c3cccc(O)c3)Cc3ccccc3C[C@]2(C)C1`, the pKi in experiment [1] is 6.78; in experiment [2] it was 6.53; in experiment [3], 6.92; in experiment [7], 7.28; in experiment [4] it was < 5.24.
